Test [1] is described as follows: Inhibition of chymotrypsin-like activity of rabbit 20S proteasome. Details: species or system Oryctolagus cuniculus.
A short description of test [2]: Inhibition of trypsin-like activity of rabbit 20S proteasome. The arrangement: species or system Oryctolagus cuniculus.
The nature of test [3]: Inhibition of caspase-like activity of rabbit 20S proteasome. The arrangement: species or system Oryctolagus cuniculus.
Test [4] relates to RPMI-8226. The test is described as follows: Cytotoxicity against human RPMI8226 cells after 48 hrs by resazurin assay. Type of test: functional, cell-based.

Several values for one entry are separate records, joined by “and”; a condition that tells them apart may be missing. Equal values may be shown once. Some results are limits rather than exact numbers.

Consider `CC(C)[C@H](O)[C@@]12NC(=O)[C@H](CCCl)[C@]1(C)OC2=O` [ANTIPROTEALIDE], for which the IC50 was 27 nM and 31 nM in test [1]; 211 nM and 262 nM in test [2]; greater than 20000 nM in test [3]; 220 nM in test [4] (Homo sapiens, RPMI-8226, 48 h); 283 nM in test [4] (rpmi-8226).

`C[C@@]12OC(=O)[C@]1([C@@H](O)[C@@H]1C=CCCC1)NC(=O)[C@@H]2CCCl` [MARIZOMIB]: the half-inhibitory concentration (IC50) in test [1] was determined as 4 nM; in test [2], 34 nM; in test [3] it was 364 nM; in test [4] (Homo sapiens, RPMI-8226, 48 h), 11 nM.

These data come from ChEMBL document CHEMBL1151983, “Antiprotealide is a natural product” (J Nat Prod, 2009).
